Assay results as given in patent US20240376086A1, “SOLID FORM OF RHO-ASSOCIATED PROTEIN KINASE INHIBITOR OR SOLVATE THEREOF, PREPARATION METHOD AND USE THEREOF” (BEIJING TIDE PHARMACEUTICAL CO., LTD., priority 2021, published 2024).

Assays:
Format in all cases: physicochemical
[1] = Solid heat stability test (heating in DSC, then XRPD)
Protocol: Experimental Example 2: Solid Heat Stability Test
In a differential scanning calorimeter, samples of Crystalline Form I of Compound A monohydrate were heated at a rate of 10° C./min to 150° C. and 210° C., respectively, and then analyzed by X-ray powder diffraction.

[2] = Solid hygroscopicity test; settings: 25° C.±1° C., 80%±2% relative humidity, 24 hours
Protocol: Experimental Example 3: Solid Hygroscopicity Test
100 mg of Crystalline Form II of Compound A anhydrate and 100 mg of Crystalline Form I of Compound A monohydrate were precisely weighed. The two samples were placed at 25° C.±1° C. and 80%±2% relative humidity for 24 hours. The weight of the samples was then measured and the percentage weight increase was calculated.

[3] = Solid stability test (XRPD after storage)
Protocol: Experimental Example 1: Solid Stability Test
Two samples of Crystalline Form II of Compound A anhydrate were placed in environments of 40° C./75% RH and 60° C./90% RH for 7 days.

crystalline form by XRPD after heat treatment ([1]; heated at 10° C./min to 150° C.)	weight increase percentage (hygroscopicity) [2] [%]	change in the crystalline form by XRPD analysis ([3]; 40° C./75% RH for 7 days)	change in the crystalline form by XRPD analysis ([3]; 60° C./90% RH for 7 days)	SMILES	crystalline form by XRPD after heat treatment ([1]; heated at 10° C./min to 210° C.)
remained unchanged	3.62	–	–	Cn1c(C(=O)C2CC(F)(F)C2)cc2ccc(-c3nccc(Nc4ccc(-c5cn[nH]c5)cc4)n3)cc21 [Crystalline Form I of Compound A monohydrate]	converted to crystalline form II of Compound A anhydrous
–	0.69	no change in the crystalline form	no change in the crystalline form	Cn1c(C(=O)C2CC(F)(F)C2)cc2ccc(-c3nccc(Nc4ccc(-c5cn[nH]c5)cc4)n3)cc21 [Crystalline Form II of Compound A anhydrate]	–
